According to the NIST ThermoML archive (doi:10.1016/j.fluid.2008.09.026):
± gives the expanded uncertainty stated by the source.

Conditions: Liquid, Ebulliometric method (Recirculating still)

## CCCCCC [hexane]
326.11 K
  vapor or sublimation pressure: 60 ± 0.1 kPa
334.61 K
  vapor or sublimation pressure: 80 ± 0.1 kPa
341.48 K
  vapor or sublimation pressure: 100 ± 0.1 kPa

## CC(C)OCCO [2-isopropoxyethanol]
398.12 K
  vapor or sublimation pressure: 60 ± 0.1 kPa
407.13 K
  vapor or sublimation pressure: 80 ± 0.1 kPa
414.21 K
  vapor or sublimation pressure: 100 ± 0.1 kPa

## CCCCCCC [heptane]
354.72 K
  vapor or sublimation pressure: 60 ± 0.1 kPa
363.74 K
  vapor or sublimation pressure: 80 ± 1 kPa
371.2 K
  vapor or sublimation pressure: 100 ± 0.1 kPa
